According to the supplement of paper PMC10627819:

Experiments:
S. aureus DSM 20231 [1] = assay: fitness (endpoint OD595 vs no drug) (fraction); higher = more growth
In short: (§1)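 Bacterial growth was followed in 384-well plates seeded at OD595 0.01, with 30 µl per well, or 55 µl for S. pneumoniae, in TSB, LB Lennox or CY at 37 °C. OD595 was read every 30 min for 14 h, and each reading had the first reading subtracted as background. Fitness is the background-corrected optical density at entry into stationary phase divided by the robust mean of the no-drug control wells. This ratio is capped at 1.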

S. aureus Newman [2] = assay: as above
In short: as §1

S. pneumoniae D39V [3] = assay: as above
In short: as §1

B. subtilis 168 = assay: Bliss interaction score (quartile over a dose matrix) (fitness difference); higher = more antagonism (negative = synergy)
In short: (§2)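 Combination data were used to infer fitness under each single drug. Fitness is the OD595 at entry into stationary phase divided by the robust mean of the plate's no-drug wells, with a cap of 1. The Bliss score is the observed minus the expected product fitness, summarised by quartiles over technical, biological and donor/recipient replicates.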

S. aureus DSM 20231 [4] = assay: as above
In short: as §2

S. aureus Newman [5] = assay: as above
In short: as §2

S. pneumoniae D39V [6] = assay: as above
In short: as §2
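Throughout, for Bliss interaction score (quartile over a dose matrix): first quartile when negative (synergy) and third quartile when positive (antagonism).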

CCN(CC)CCOC(=O)c1ccc(N)cc1 [Procaine] + Cn1nnc(-c2ccc(-c3ccc(N4C[C@H](CO)OC4=O)cc3F)cn2)n1 [Tedizolid]
fitness
Conditions | first compound 85.5 µg/mL | first compound 171 µg/mL | first compound 342 µg/mL
S. aureus DSM 20231 [1], partner 0.0625 µg/mL | 0.789 | 0.887 | 0.81
S. aureus DSM 20231 [1], partner 0.25 µg/mL | 0.067 | 0.0661 | 0.0739
S. aureus Newman [2], partner 0.0625 µg/mL | ≥ 1 | 0.972 | 0.972
S. aureus Newman [2], partner 0.125 µg/mL | 0.969 | 0.939 | 0.951
S. pneumoniae D39V [3], partner 0.03125 µg/mL | 0.989 | 0.975 | 0.97
S. pneumoniae D39V [3], partner 0.0625 µg/mL | 0.954 | 0.943 | 0.973
S. pneumoniae D39V [3], partner 0.125 µg/mL | 0.803 | 0.862 | 0.796

fitness, S. pneumoniae D39V [3], one replicate
Conditions | first compound 85.5 µg/mL | first compound 171 µg/mL | first compound 342 µg/mL
partner 0.25 µg/mL | 0.67 | 0.744 | 0.695
partner 0.5 µg/mL | 0.282 | 0.311 | 0.353

Conditions | Bliss interaction score
B. subtilis 168 | -0.0545
S. aureus DSM 20231 [4] | -0.0772
S. aureus Newman [5] | 0.0692
S. pneumoniae D39V [6] | -0.0797

Cn1nnc(-c2ccc(-c3ccc(N4C[C@H](CO)OC4=O)cc3F)cn2)n1 [Tedizolid] + CC1=C\[C@@H](O)CC(=O)Cc2nc(co2)C(=O)N2CCC=C2C(=O)O[C@H](C(C)C)[C@H](C)/C=C/C(=O)NC\C=C\1 [Virginiamycin M1]
fitness
Conditions | first compound 0.03125 µg/mL | first compound 0.0625 µg/mL | first compound 0.125 µg/mL | first compound 0.25 µg/mL | first compound 0.5 µg/mL
S. aureus DSM 20231 [1], partner 0.0625 µg/mL | – | 0.839 | 0.579 | 0.194 | –
S. aureus DSM 20231 [1], partner 0.125 µg/mL | – | 0.889 | 0.542 | 0.212 | –
S. aureus DSM 20231 [1], partner 0.25 µg/mL | – | 0.888 | – | 0.102 | –
S. aureus Newman [2], partner 0.0625 µg/mL | – | 0.965 | 0.814 | – | –
S. aureus Newman [2], partner 0.125 µg/mL | – | 0.97 | 0.823 | – | –
S. aureus Newman [2], partner 0.25 µg/mL | – | 0.997 | 0.843 | – | –
S. pneumoniae D39V [3], partner 0.5 µg/mL | 0.972 | 0.962 | 0.807 | – | –
S. pneumoniae D39V [3], partner 1 µg/mL | 0.978 | 0.973 | 0.807 | – | –
S. pneumoniae D39V [3], partner 2 µg/mL | 0.955 | 0.948 | 0.824 | 0.785 | 0.607

fitness, one replicate
Conditions | first compound 0.0625 µg/mL | first compound 0.125 µg/mL | first compound 0.25 µg/mL | first compound 0.5 µg/mL
S. aureus DSM 20231 [1], partner 0.5 µg/mL | 0.676 | 0.31 | 0.0481 | –
S. aureus DSM 20231 [1], partner 1 µg/mL | 0.681 | 0.327 | 0.0496 | –
S. aureus Newman [2], partner 0.5 µg/mL | 0.885 | 0.91 | 0.57 | –
S. aureus Newman [2], partner 1 µg/mL | 0.956 | 0.956 | 0.565 | –
S. aureus Newman [2], partner 2 µg/mL | 0.851 | 0.785 | 0.456 | –
S. pneumoniae D39V [3], partner 0.15 µg/mL | – | 0.905 | 0.835 | 0.534
S. pneumoniae D39V [3], partner 0.3 µg/mL | – | 0.892 | 0.818 | 0.505
S. pneumoniae D39V [3], partner 0.5 µg/mL | – | – | 0.838 | 0.659
S. pneumoniae D39V [3], partner 1 µg/mL | – | – | 0.771 | 0.523

Conditions | Bliss interaction score
B. subtilis 168 | -0.0674
S. aureus DSM 20231 [4] | -0.078
S. aureus Newman [5] | 0.0611
S. pneumoniae D39V [6] | 0.103

Cn1nnc(-c2ccc(-c3ccc(N4C[C@H](CO)OC4=O)cc3F)cn2)n1 [Tedizolid] + CN[C@H](CC(C)C)C(=O)N[C@H]1C(=O)N[C@@H](CC(N)=O)C(=O)N[C@H]2C(=O)N[C@H]3C(=O)N[C@H](C(=O)N[C@H](C(=O)O)c4cc(O)cc(O)c4-c4cc3ccc4O)[C@H](O)c3ccc(c(Cl)c3)Oc3cc2cc(c3O[C@@H]2O[C@H](CO)[C@@H](O)[C@H](O)[C@H]2O[C@H]2C[C@](C)(N)[C@H](O)[C@H](C)O2)Oc2ccc(cc2Cl)[C@H]1O [Vancomycin]
fitness
Conditions | first compound 0.03125 µg/mL | first compound 0.0625 µg/mL | first compound 0.125 µg/mL | first compound 0.25 µg/mL | first compound 0.5 µg/mL
S. aureus DSM 20231 [1], partner 0.1875 µg/mL | – | 0.89 | 0.754 | 0.348 | –
S. aureus DSM 20231 [1], partner 0.375 µg/mL | – | 0.891 | 0.723 | 0.377 | –
S. aureus DSM 20231 [1], partner 0.75 µg/mL | – | 0.924 | 0.867 | 0.397 | –
S. aureus Newman [2], partner 0.1875 µg/mL | – | 0.977 | 0.87 | – | –
S. aureus Newman [2], partner 0.375 µg/mL | – | 0.966 | 0.845 | – | –
S. aureus Newman [2], partner 0.75 µg/mL | – | 0.939 | 0.824 | – | –
S. pneumoniae D39V [3], partner 0.03125 µg/mL | – | – | 0.809 | 0.73 | 0.482
S. pneumoniae D39V [3], partner 0.0625 µg/mL | – | – | 0.819 | 0.718 | 0.473
S. pneumoniae D39V [3], partner 0.125 µg/mL | 0.976 | 0.968 | 0.833 | – | –

Conditions | Bliss interaction score
B. subtilis 168 | 0.0605
S. aureus DSM 20231 [4] | -0.0656
S. aureus Newman [5] | 0.046
S. pneumoniae D39V [6] | 0.107
